This passage reports ED50 and melting point results from patent publication US20080306070A1, “Combination Therapy Comprising Substituted Oxazolidinones for the Prevention and Treatment of Cerebral Circulatory Disorders” (BAYER HEALTHCARE AG, priority 2005, published 2008).

Data set [1] deals with thrombus formation in an arteriovenous shunt. Nature of the data set: Arteriovenous shunt model (rat), antithrombotic effect. The format is in vivo. The settings on record: oral administration, read-out: ED50 [mg/kg] p.o. As for the experimental part: Fasting male rats (strain: HSD CPB:WU) weighing 200-250 g were anesthetized with a Rompun/Ketavet solution (12 mg/kg/50 mg/kg). Thrombus formation was induced in an arteriovenous shunt by a method based on that described by Christopher N. Berry et al., Br. J. Pharmacol. (1994), 113, 1209-1214. For this purpose, the left jugular vein and the right carotid artery were exposed. An extracorporeal shunt was formed between the two vessels using a 10 cm-long polyethylene tube (PE 60). This polyethylene tube was secured in the middle by tying in a further 3 cm-long polyethylene tube (PE 160) which contained a roughened nylon thread forming a loop to produce a thrombogenic surface. The extracorporeal circulation was maintained for 15 minutes. The shunt was then removed and the nylon thread with the thrombus was immediately weighed. The blank weight of the nylon thread had been found before the start of the experiment. The test substances were administered either intravenously through the tail vein or orally by gavage to conscious animals before setting up the extracorporeal circulation.

In the case of `O=C(NC[C@H]1CN(c2ccc(N3CCOCC3=O)cc2)C(=O)O1)c1ccc(Cl)s1` [Example 44, 5-Chloro-N-({(5S)-2-oxo-3-[4-(3-oxo-4-morpholinyl)phenyl]-1,3-oxazolidin-5-yl}methyl)-2-thiophenecarboxamide], the ED50 in data set [1] worked out at 3 mg/kg.
On to `O=C(NC[C@H]1CN(c2ccc(N3CCCOC3=O)cc2)C(=O)O1)c1ccc(Cl)s1` [Example 255], for which the melting point (commonly the temperature, or range, at which the solid turns liquid) fell in the range of 228 to 230 °C.
